{"source": "patent US20230347344A1", "about": "“COMBINATION OF PHARMACOLOGICAL AND MICROFLUIDIC FEATURES FOR IMPROVED PLATELETS PRODUCTION” (HEMOSTOD SA, priority 2015, published 2023)", "key": {"megakaryocytes [1]": {"tested_on": "megakaryocytes", "details": "cited from earlier work; for megakaryocyte ploidy / polyploidization: culture conditions, literature"}, "[2]": {"tested_on": "platelets produced from megakaryocytes", "experiment": "Flow cytometry analysis of platelet receptors (CD41, CD42b, CD61, CD49b) on produced platelets", "type": "cell-based, human", "details": "for proportion of CD41+/CD42b+ platelet: compound during 2 hours of perfusion, without or with previous introduction during culture stage; for proportion of platelets expressing CD42b receptor: compound in megakaryocyte suspension during 2 h perfusion vs without (10 μM ROCK inhibitor; 25 μM GM6001)", "method": "(§1) CD34^+ cells were isolated from human umbilical cord blood (UCB) by an immunomagnetic technique (Miltenyi Biotec, Paris, France) as previously reported (see Poirault-Chassac et al, “Notch/Delta4 signaling inhibits human megakaryocytic terminal differentiation”, Blood, vol. 116, no 25, p. 5670-5678, 2010). These blood samples were obtained after informed consent and approval from our Institute Ethics Committee and in accordance with the Declaration of Helsinki. CD34^+ cells were cultured in a humid atmosphere at 37° C. in 5% CO2 in complete medium consisting of Iscove modified Dulbecco medium (IMDM; Gibco Life Technologies, Saint-Aubin, France) supplemented with 15% BIT 9500 serum substitute (Stem Cells Technologies, Grenoble, France), α-monothioglycerol (Sigma-Aldrich, Saint-Quentin Fallavier, France) and liposomes (phosphatidyl-choline, cholesterol and oleic acid; SigmaAldrich). Human recombinant stem cell factor (SCF, 20 ng/mL; Miltenyi Biotec) and thrombopoietin peptide agonist AF13948 (TPO, 50 nM) (see Dunois-Lardé et al, “Exposure of human megakaryocytes to high shear rates accelerates platelet production”, Blood, vol. 114, no 9, p. 1875-1883, 2009) were added once at day 0 to the culture medium followed by addition of 20 nM TPO without SCF at day 5. Mature megakaryocytes are obtained after 12-14 days of culture. Removal of platelets formed during culture and immediately prior to shear exposure was performed by means of a BSA gradient according to the methods reported in (Robert A, Cortin V, Gamier A, Pineault N. Megakaryocyte and platelet production from human cord blood stem cells. Methods Mol Biol. 2012; 788: 219-47). The concentration was then adjusted to 200 000 megakaryocytes/mL. 10 μM ROCK inhibitor (Y27632, Sigma Aldrich, Saint Quentin Fallavier, France) may be added to the culture of megakaryocytes at day 8 of culture. Addition of 10 μM ROCK inhibitor was performed before introducing megakaryocytes suspension into the inlet chamber of the microfluidic device. 6.25 μM nicotinamide (N0636, Sigma Aldrich, Saint Quentin Fallavier, France) was added to the culture of megakaryocytes at day 8 of culture. Addition of 6.25 μM nicotinamide was performed before introducing megakaryocyte suspension into the inlet chamber of the microfluidic device. 20 μM blebbistatin (203390, Calbiochem) was added to the culture of megakaryocytes at day 8 of culture. Addition of 20 μM blebbistatin was performed before introducing megakaryocyte suspension into the inlet chamber of the microfluidic device. 10 μM latrunculin-A (sc202691, Santa Cruz Biotechnology) was added to the culture of megakaryocytes at day 8 of culture. Addition of 10 μM latrunculin-A was performed before introducing megakaryocyte suspension into the inlet chamber of the microfluidic device. 25 μM GM6001 (ab120845, Abcam) was added to the culture of megakaryocytes at day 8 of culture. Addition of 25 μM GM6001 was performed before introducing megakaryocyte suspension into the inlet chamber of the microfluidic device\nPlatelet production in the microfluidic device of geometry 2 was compared to control samples, consisting of platelet production from twenty-four hours static condition without the microfluidic chip. Expression of CD41 and CD42 antigens was characterized using a flow cytometer BD Fluorescence Accuri C6 ® (BD Biosciences, Le Pont de Claix, France). Platelets were incubated with fluorescein isothiocyanate (FITC)-conjugated anti-human CD41 (αIIb), R-phycoerythrin (PE)-conjugated anti-human CD42b (GPIbα) (both from Beckman Coulter, Villepinte, France) and FITC-conjugated anti-human activated αIIbb3 (BD Biosciences) during 15 minutes at 22° C., Controls were performed using FITC mouse IgG1 (Beckman Coulter), PE mouse IgG1 (Beckman Coulter). Single color flow cytometry analysis of platelet receptors was performed using the GP screen assay (Biocytex, Marseille, France). […]"}, "megakaryocytes [3]": {"tested_on": "megakaryocytes", "experiment": "Platelet release in the microfluidic device after two hours of perfusion, hemocytometer counting", "type": "cell-based, human", "details": "compound in suspension during 2 h perfusion stage, absent during culture stage (10 μM ROCK inhibitor; 6.25 μM nicotinamide)", "method": "CD34^+ cells were isolated from human umbilical cord blood (UCB) by an immunomagnetic technique (Miltenyi Biotec, Paris, France) as previously reported (see Poirault-Chassac et al, “Notch/Delta4 signaling inhibits human megakaryocytic terminal differentiation”, Blood, vol. 116, no 25, p. 5670-5678, 2010). These blood samples were obtained after informed consent and approval from our Institute Ethics Committee and in accordance with the Declaration of Helsinki. CD34^+ cells were cultured in a humid atmosphere at 37° C. in 5% CO2 in complete medium consisting of Iscove modified Dulbecco medium (IMDM; Gibco Life Technologies, Saint-Aubin, France) supplemented with 15% BIT 9500 serum substitute (Stem Cells Technologies, Grenoble, France), α-monothioglycerol (Sigma-Aldrich, Saint-Quentin Fallavier, France) and liposomes (phosphatidyl-choline, cholesterol and oleic acid; SigmaAldrich). Human recombinant stem cell factor (SCF, 20 ng/mL; Miltenyi Biotec) and thrombopoietin peptide agonist AF13948 (TPO, 50 nM) (see Dunois-Lardé et al, “Exposure of human megakaryocytes to high shear rates accelerates platelet production”, Blood, vol. 114, no 9, p. 1875-1883, 2009) were added once at day 0 to the culture medium followed by addition of 20 nM TPO without SCF at day 5. Mature megakaryocytes are obtained after 12-14 days of culture. […]"}, "megakaryocytes [4]": {"tested_on": "megakaryocytes", "experiment": "Megakaryocyte capture and elongation in the microfluidic device (surface density of captured and elongated megakaryocytes)", "type": "cell-based, human", "details": "for elongation process and beads-on-a-thread structure formation: compound added to megakaryocyte suspension during perfusion (10 μM ROCK inhibitor; 6.25 μM nicotinamide)", "method": "as §1\nAll the devices are composed of 16 parallel channels organized in a serpentine shape (FIG. 16). The channels were textured on the straight parts (13.2 cm long) and patterned with the parameters: r=15 μm, H=50 μm, H/h=1.\nThe microfluidic chip was set on the stage of an inverted microscope (DMI6000 B, Leica Microsystems GmbH, Germany). A computer assisted motorized stage control was used to record positions along the channel length. We recorded observation field positions and alternated recording images between them along the experiment time. Differential interference contrast objective was used to record movies and images between 10× and 40×. A CMOS high-speed camera (Fastcam SA3, Photron, USA) was used to record images at frequencies from 0.5 to 1500 Hz.\nSurface captured cells were counted manually from the recorded channel images, and cells in suspension were counted with a hematocytometer."}, "[5]": {"tested_on": "platelets produced from megakaryocytes", "experiment": "Activation of produced platelets by TRAP-6 (PAC1 binding, fibrinogen adhesion, tubulin/actin immunofluorescence)", "type": "cell-based, human", "experimental": "Image acquisition was performed with an Axio Observer microscope (Zeiss) at 40×1.6-fold magnification with a QIClick-F-CLR-12 Digital CCD Camera (Q Imaging). Platelets are adherent to fibrinogen.\nFIG. 8 is a picture showing two colors flow cytometry analysis of platelets receptors with or without activation of the CD41/CD61 receptor by the agonist peptide of the PAR-1 thrombin receptor (TRAP6). (A) Histogram indicates, within the platelet gate, the % of PAC-1/CD42b positive elements before (black bars) or after (gray bars) TRAP-6 activation of platelets produced in the microfluidic device from megakaryocytes suspension in the absence (+/+2 h) or the presence (+/+2 h Ri) of ROCK inhibitor (Ri). […] No Ri was added during the culture stage. n=1.\nPlatelet production in the microfluidic device of geometry 2 was compared to control samples, consisting of platelet production from twenty-four hours static condition without the microfluidic chip. Expression of CD41 and CD42 antigens was characterized using a flow cytometer BD Fluorescence Accuri C6 ® (BD Biosciences, Le Pont de Claix, France). […] The number of antigenic sites is determined by converting the fluorescence intensity into corresponding numbers of monoclonal antibodies bound per platelet based on a calibrated bead standard curve. […]"}, "[6]": {"details": "10 μM ROCK inhibitor in suspension during perfusion, absent during culture stage, count after 35 min of perfusion"}, "[7]": {"details": "channels coated at 40 μg·mL^−1, t=35 min, ROCK inhibitor in culture (day 8) and perfusion"}}, "data": [{"molecule": "NC(=O)c1cccnc1", "note": "[nicotinamide, pyridine-3-carboxamide]", "values": [{"measurement": "megakaryocyte ploidy / polyploidization", "setting": "megakaryocytes [1]", "value": "increases"}, {"measurement": "proportion of CD41+/CD42b+ platelet", "setting": "[2]", "value": "higher"}, {"measurement": "platelet release vs suspension without compound", "setting": "megakaryocytes [3]", "value": "higher platelet release"}, {"measurement": "elongation process and beads-on-a-thread structure formation", "setting": "megakaryocytes [4]", "value": "No differences"}]}, {"molecule": "CNC(=O)[C@H](Cc1c[nH]c2ccccc12)NC(=O)[C@@H](CC(=O)NO)CC(C)C", "note": "[GM6001, N-[(2R)-2-(hydroxamidocarbonylmethyl)-4-methylpentanoyl]-L-tryptophan methylamide]", "values": [{"measurement": "proportion of platelet CD42b+", "setting": "[2]; GM6001 during the culture as well as during the 2 hours perfusion stage", "value": "increased"}, {"measurement": "proportion of platelets expressing CD42b receptor", "setting": "[2]", "value": "higher"}]}, {"molecule": "Cc1ccc2c(c1)C(=O)C1(O)CCN(c3ccccc3)C1=N2", "note": "(centres unmarked) [blebbistatin, 1-Phenyl-1,2,3,4-tetrahydro-4-hydroxpyrrolo[2,3-b]-7-methylquinolin-4-one]", "values": [{"measurement": "proportion of CD41+/CD42b+ platelet", "setting": "[2]", "value": "higher"}]}, {"molecule": "O=S(=O)(c1cccc2c(O)nccc12)N1CCCNCC1", "note": "[ROCK inhibitor, 1-(1-Hydroxy-5-isoquinolinesulfonyl)homopiperazine]", "values": [{"measurement": "tubulin conformation of produced platelets upon TRAP-6 stimulation", "setting": "[5]; ROCK inhibitor during 2 h perfusion, platelets adherent to fibrinogen, FIG. 7", "value": "tubulin conformation typical of a transient activation"}, {"measurement": "conformation of the αIIbβ3 receptors (PAC1 binding) upon TRAP-6 stimulation", "setting": "[5]; platelets from suspension with ROCK inhibitor, FIGS. 8 and 9", "value": "activated conformation"}, {"measurement": "characteristics of produced platelets (CD61, CD42b, CD49b receptor density) vs platelets isolated from blood", "setting": "[2]; ROCK inhibitor during 2 h perfusion, FIG. 6", "value": "comparable to those of natural platelets"}, {"measurement": "proportion of platelets expressing CD42b receptor", "setting": "[2]", "value": "higher"}, {"measurement": "platelet release vs suspension without compound", "setting": "megakaryocytes [3]", "value": "significant higher platelet release"}, {"measurement": "captured megakaryocytes density, ROCK inhibitor added vs not added", "setting": "megakaryocytes [4]; [6]", "value": "1.42±0.13", "unit": "fold"}, {"measurement": "elongated megakaryocytes density, ROCK inhibitor added vs not added", "setting": "megakaryocytes [4]; [6]", "value": "2.98±0.28", "unit": "fold"}, {"measurement": "elongation process and beads-on-a-thread structure formation", "setting": "megakaryocytes [4]", "value": "No differences"}]}, {"molecule": "C/C1=C/C(=O)O[C@@H]2C[C@@H](CC[C@H](C)/C=C\\C=C\\CC1)O[C@@](O)([C@@H]1CSC(=O)N1)C2", "note": "[latrunculin, Latrunculin A]", "values": [{"measurement": "megakaryocyte ploidy / polyploidization", "setting": "megakaryocytes [1]", "value": "increase"}, {"measurement": "megakaryocyte apoptosis activation", "setting": "megakaryocytes [1]; literature (Avanzi et al)", "value": "increase"}, {"measurement": "proportion of CD41+/CD42b+ platelet", "setting": "[2]", "value": "higher"}]}, {"molecule": "VWF: Human von Willebrand factor, used as surface coating of the platelet production channel", "values": [{"measurement": "captured megakaryocytes density, VWF coating vs BSA coating", "setting": "megakaryocytes [4]; [7]", "value": "5.86±1", "unit": "fold"}, {"measurement": "elongated megakaryocytes density, VWF coating vs BSA coating", "setting": "megakaryocytes [4]; [7]", "value": "7.72±1.32", "unit": "fold"}]}]}
